Tests used:
Details in all cases: in vivo
Rattus norvegicus [1] = experiment: AUC (0 to 6 hrs) as total radioactivity in Sprague-Dawley rat plasma at 100 mg/kg, po administered as single oral dose by HPLC analysis; type: ADME, organism-based
Cynomolgus monkey [2] = experiment: AUC (0 to 12 hrs) as total radioactivity in cynomolgus monkey plasma at 10 mg/kg, po administered as single oral dose by HPLC analysis; type: ADME, organism-based, Macaca fascicularis
Homo sapiens [3] = experiment: AUC (0 to 12 hrs) as total radioactivity in human plasma at 800 mg, po administered as single oral dose by HPLC analysis; type: ADME, organism-based
[4] = Drug recovery in Sprague-Dawley rat urine at 100 mg/kg, po administered as single dose via gavage measured during 0 to 168 hrs by liquid scintillation counting; type: ADME, organism-based
[5] = Drug recovery in Sprague-Dawley rat feces at 100 mg/kg, po administered as single dose via gavage measured during 0 to 168 hrs by liquid scintillation counting; type: ADME, organism-based
Rattus norvegicus [6] = experiment: Total drug recovery in Sprague-Dawley rat at 100 mg/kg, po administered as single dose via gavage measured during 0 to 168 hrs by liquid scintillation counting; type: ADME, organism-based
[7] = Drug recovery in bile duct-cannulated rat urine at 100 mg/kg, po administered as single dose via gavage measured during 0 to 48 hrs by liquid scintillation counting; type: ADME, organism-based
[8] = Drug recovery in bile duct-cannulated rat bile at 100 mg/kg, po administered as single dose via gavage measured during 0 to 48 hrs by liquid scintillation counting; type: ADME, organism-based
[9] = Drug recovery in bile duct-cannulated rat feces at 100 mg/kg, po administered as single dose via gavage measured during 0 to 48 hrs by liquid scintillation counting; type: ADME, organism-based
Rattus norvegicus [10] = experiment: Total drug recovery in bile duct-cannulated rat at 100 mg/kg, po administered as single dose via gavage measured during 0 to 48 hrs by liquid scintillation counting; type: ADME, organism-based
[11] = Drug recovery in cynomolgus monkey urine at 10 mg/kg, po administered as single dose via gavage measured during 0 to 168 hrs by liquid scintillation counting; type: ADME, organism-based, Macaca fascicularis
[12] = Drug recovery in cynomolgus monkey feces at 10 mg/kg, po administered as single dose via gavage measured during 0 to 168 hrs by liquid scintillation counting; type: ADME, organism-based, Macaca fascicularis
Cynomolgus monkey [13] = experiment: Total drug recovery in cynomolgus monkey at 10 mg/kg, po administered as single dose via gavage measured during 0 to 168 hrs by liquid scintillation counting; type: ADME, organism-based, Macaca fascicularis
[14] = Drug recovery in bile duct-cannulated cynomolgus monkey urine at 10 mg/kg, po administered as single dose via gavage measured during 0 to 72 hrs by liquid scintillation counting; type: ADME, organism-based, Macaca fascicularis
Cynomolgus monkey [15] = experiment: Cmax as total radioactivity in cynomolgus monkey plasma treated at 10 mg/kg, po administered as single dose via gavage by liquid scintillation counting; type: ADME, organism-based, Macaca fascicularis
Cynomolgus monkey [16] = experiment: Tmax of total radioactivity in cynomolgus monkey plasma treated at 10 mg/kg, po administered as single dose via gavage by liquid scintillation counting; type: ADME, organism-based, Macaca fascicularis
Cynomolgus monkey [17] = experiment: AUC (0 to t) as total radioactivity in cynomolgus monkey plasma treated at 10 mg/kg, po administered as single dose via gavage by liquid scintillation counting; type: ADME, organism-based, Macaca fascicularis
Homo sapiens [18] = experiment: Cmax as total radioactivity in human plasma treated at 800 mg, po administered as single dose […] by mass spectrometry; type: ADME, organism-based
Homo sapiens [19] = experiment: Tmax of total radioactivity in human plasma treated at 800 mg, po administered as single dose […] by mass spectrometry; type: ADME, organism-based
Homo sapiens [20] = experiment: AUC (0 to t) as total radioactivity in human plasma treated at 800 mg, po administered as single dose […] by mass spectrometry; type: ADME, organism-based
[21] = Drug recovery in bile duct-cannulated cynomolgus monkey bile at 10 mg/kg, po administered as single dose via gavage measured during 0 to 72 hrs by liquid scintillation counting; type: ADME, organism-based, Macaca fascicularis
[22] = Drug recovery in bile duct-cannulated cynomolgus monkey feces at 10 mg/kg, po administered as single dose via gavage measured during 0 to 72 hrs by liquid scintillation counting; type: ADME, organism-based, Macaca fascicularis
Cynomolgus monkey [23] = experiment: Total drug recovery in bile duct-cannulated cynomolgus monkey at 10 mg/kg, po administered as single dose via gavage measured during 0 to 72 hrs by liquid scintillation counting; type: ADME, organism-based, Macaca fascicularis
[24] = Drug recovery in human urine at 800 mg, po administered as single dose via gavage measured during 0 to 288 hrs by liquid scintillation counting; type: ADME, organism-based
[25] = Drug recovery in human feces at 800 mg, po administered as single dose via gavage measured during 0 to 288 hrs by liquid scintillation counting; type: ADME, organism-based
Homo sapiens [26] = experiment: Total drug recovery in human at 800 mg, po administered as single dose […] measured during 0 to 288 hrs by liquid scintillation counting; type: ADME, organism-based
Rattus norvegicus [27] = experiment: Cmax as total radioactivity in Sprague-Dawley rat plasma treated at 100 mg/kg, po administered as single dose via gavage by liquid scintillation counting; type: ADME, organism-based
Rattus norvegicus [28] = experiment: Tmax of total radioactivity in Sprague-Dawley rat plasma treated at 100 mg/kg, po administered as single dose via gavage by liquid scintillation counting; type: ADME, organism-based
Rattus norvegicus [29] = experiment: AUC (0 to t) as total radioactivity in Sprague-Dawley rat plasma treated at 100 mg/kg, po administered as single dose via gavage by liquid scintillation counting; type: ADME, organism-based

Cc1cc2c(F)c(Oc3n[14cH]nn4cc(OC[C@@H](C)OC(=O)[C@H](C)N)c(C)c34)ccc2[nH]1
AUC (Rattus norvegicus [1]): 139766 ugequiv/l.hr | AUC (Cynomolgus monkey [2]): 69315 ugequiv/l.hr | AUC (Homo sapiens [3]): 65627.4 ugequiv/l.hr | Radiolabel recovery [4]: 9.46% | Radiolabel recovery [5]: 83.58% | Radiolabel recovery (Rattus norvegicus [6]): 93.68% | Radiolabel recovery [7]: 7.33% | Radiolabel recovery [8]: 78.35% | Radiolabel recovery [9]: 3.31% | Radiolabel recovery (Rattus norvegicus [10]): 88.99% | Radiolabel recovery [11]: 10.3% | Radiolabel recovery [12]: 76.31% | Radiolabel recovery (Cynomolgus monkey [13]): 89.79% | Radiolabel recovery [14]: 3.56% | Cmax (Cynomolgus monkey [15]): 9700 ng/mL | Tmax (Cynomolgus monkey [16]): 2 h | AUCt (Cynomolgus monkey [17]): 90.3 µg·h/mL | Cmax (Homo sapiens [18]): 9400 ng/mL | Tmax (Homo sapiens [19]): 1 h | AUCt (Homo sapiens [20]): 203.8 µg·h/mL | Radiolabel recovery [21]: 47.66% | Radiolabel recovery [22]: 26.41% | Radiolabel recovery (Cynomolgus monkey [23]): 81.43% | Radiolabel recovery [24]: 12.18% | Radiolabel recovery [25]: 81.54% | Radiolabel recovery (Homo sapiens [26]): 93.72% | Cmax (Rattus norvegicus [27]): 35200 ng/mL | Tmax (Rattus norvegicus [28]): 2 h | AUCt (Rattus norvegicus [29]): 250 µg·h/mL

— ChEMBL document CHEMBL3526109 (Drug Metab Dispos, 2011)
